Converted amounts (≈) assume the structure as drawn. A value given as a limit tells only on which side of the number the result lay.

Data set [1] has as its target T1, BRPF2 BD/H4 (Homo sapiens, UniProt O95696).
T1 sequence (O95696 560-666): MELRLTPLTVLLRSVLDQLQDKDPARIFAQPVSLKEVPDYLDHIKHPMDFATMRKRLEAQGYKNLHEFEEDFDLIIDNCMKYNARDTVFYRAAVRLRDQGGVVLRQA
Nature of the data set: NanoBRET cellular assay. Format: cell-based. The settings on record: HCT116 cells. A general note: In BRET a luciferase serves as donor, and the signal depends on an acceptor being close.

Data set [2] is described as follows: High-throughput aqueous solubility from DMSO solution. The settings on record: pH 6.5 buffer. Format: physicochemical.
Data set [3] can be described thus: Reversed-phase HPLC lipophilicity. The settings on record: pH 7.5. Format: physicochemical.
Data set [4] deals with Caco2 cells. The experiment in a line: Caco2 permeability assay. The class given is in vitro ADME.
Data set [5] deals with T2, BRPF1 BD (Homo sapiens, UniProt P55201).
T2 sequence (P55201 626-740): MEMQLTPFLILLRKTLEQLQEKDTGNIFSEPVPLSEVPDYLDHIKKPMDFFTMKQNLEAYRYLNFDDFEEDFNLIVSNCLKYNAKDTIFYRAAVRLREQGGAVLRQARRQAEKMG
Nature of the data set: TR-FRET binding competition assay. (In general: Time-resolved FRET reads energy transfer from a long-lived donor to a nearby acceptor.)

Data set [6] deals with T3, BRPF3 BD (Homo sapiens, UniProt Q9ULD4).
T3 sequence (Q9ULD4 592-711): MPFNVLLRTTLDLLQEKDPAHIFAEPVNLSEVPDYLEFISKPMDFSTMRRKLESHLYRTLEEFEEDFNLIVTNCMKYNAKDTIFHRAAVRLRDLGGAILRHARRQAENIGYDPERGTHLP
The experiment in a line: TR-FRET binding competition assay.

For data set [7], the system named is panel of 22 kinases. The experiment in a line: Panel of 22 kinases. The class given is biochemical. The following applies: data not shown.
Data set [8] addresses T4, BRPF3 (Homo sapiens, UniProt Q9ULD4).
T4 sequence (Q9ULD4 589-693 limits assumed): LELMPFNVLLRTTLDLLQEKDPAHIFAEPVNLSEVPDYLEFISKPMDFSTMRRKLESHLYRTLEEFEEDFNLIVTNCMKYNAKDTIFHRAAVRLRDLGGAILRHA
Nature of the data set: AlphaScreen. Format: binding. A general note: Bead proximity is the source of the signal in Alpha formats.

Data set [9] deals with BRD4 BDs (Homo sapiens, UniProt O60885). The experiment in a line: AlphaScreen. Format: binding.
A short description of data set [10]: Metabolic stability in liver microsomes. The class given is in vitro ADME. The settings on record: dog liver microsomes.
Data set [11] addresses CREBBP BD (Homo sapiens, UniProt Q92793). Nature of the data set: Isothermal titration calorimetry. The class given is binding.
The nature of data set [12]: In vivo rat pharmacokinetics. Details: species or system Wistar rat.
In data set [13] the target is T5, BRPF1 (Homo sapiens, UniProt P55201).
T5 sequence (P55201 628-732 limits assumed): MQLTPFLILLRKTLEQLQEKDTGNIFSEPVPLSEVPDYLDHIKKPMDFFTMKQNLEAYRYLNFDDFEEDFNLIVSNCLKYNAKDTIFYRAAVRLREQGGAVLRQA
Nature of the data set: AlphaScreen. The class given is binding.

Data set [14] can be described thus: Metabolic stability in liver microsomes. Format: in vitro ADME. The settings on record: rat liver microsomes.
Data set [15] is described as follows: Metabolic stability in hepatocytes. The class given is in vitro ADME. The following applies: rat hepatocytes.
A short description of data set [16]: Caco2 permeability assay. The class given is in vitro ADME. The settings on record: human, Caco-2, pH 7.2, Caco2 Papp (B-A), 2 μM, 2 h.
The nature of data set [17]: Metabolic stability in liver microsomes. The class given is in vitro ADME. The settings on record: mouse liver microsomes.
Data set [18] concerns panel containing over 300 kinases. Nature of the data set: Kinase panel. The class given is biochemical. The settings on record: 10 μM, all cases.
For data set [19], the target named is T6, BRPF1 BD/H4 (Homo sapiens, UniProt P55201).
T6 sequence (P55201 626-732): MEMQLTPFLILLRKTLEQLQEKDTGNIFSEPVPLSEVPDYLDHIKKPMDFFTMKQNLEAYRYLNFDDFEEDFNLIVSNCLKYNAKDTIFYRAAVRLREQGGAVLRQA
Nature of the data set: NanoBRET cellular assay. Format: cell-based.

The nature of data set [20]: Metabolic stability in liver microsomes. The following applies: human liver microsomes. The class given is in vitro ADME.
The target in data set [21] is CREBBP (Homo sapiens, UniProt Q92793). The experiment in a line: AlphaScreen. The class given is binding.
Sequence of CREBBP (Q92793 1081-1197): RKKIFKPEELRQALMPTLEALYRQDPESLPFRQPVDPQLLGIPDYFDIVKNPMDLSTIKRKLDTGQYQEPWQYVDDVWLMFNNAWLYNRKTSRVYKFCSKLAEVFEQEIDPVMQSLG
Data set [22] addresses T7, TAF1L BD2 (Homo sapiens, UniProt Q8IZX4).
T7 sequence (Q8IZX4 1517-1649): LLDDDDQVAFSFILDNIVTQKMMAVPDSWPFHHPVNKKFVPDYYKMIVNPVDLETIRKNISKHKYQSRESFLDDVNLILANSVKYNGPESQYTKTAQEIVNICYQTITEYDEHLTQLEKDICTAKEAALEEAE
The experiment in a line: biochemical. The class given is binding.

Data set [23] relates to 68 potential targets. The experiment in a line: LeadProfilingScreen. The settings on record: 10 μM compound.

Sequence of CREBBP BD (Q92793 1081-1197): as the sequence (Q92793 1081-1197) above

A word on the IC50: it is the concentration at which inhibition is half-maximal. A higher IC50 goes with weaker potency. `Cc1cc2c(cc1N1C(=O)c3cccc4cccc(c34)C1=O)n(C)c(=O)n2C` [Compound 7, 2-(1,3,6-Trimethyl-2-oxo-2,3-dihydro-1H-benzimidazol-5-yl)-1H-benzo[de]isoquinoline-1,3(2H)-dione] yielded an IC50 in [1] of 0.47 µM.

A word on the solubility: it is the concentration that dissolves in the medium under given conditions. The chromatographic logD is lipophilicity estimated from chromatographic retention. Low readings indicate a more hydrophilic compound, high ones a more lipophilic compound. Regarding `Cn1c(=O)n(C)c2cc(N3C(=O)c4cccc5cccc(c45)C3=O)ccc21` [Compound 6], the concentration in solution in [2] (solubility at 24 h) came to 3.7 µg/mL (≈ 10.4 µM). This compound registered a chromatographic logD in data set [3] of 2.1. In addition, the “permeability profile in Caco2 cells” value in data set [4] is given as “excellent permeability profile”. The IC50 in data set [5] (BRPF1: inactive up to concentration, TR-FRET, HTS hit dose-response) was greater than 20 µM; in data set [6], greater than 20 µM.

With `Cn1c(=O)[nH]c2cc(N3C(=O)c4cccc5c(CCCO)ccc(c45)C3=O)ccc21` [Compound 31, 6-(3-Hydroxypropyl)-2-(1-methyl-2-oxo-2,3-dihydro-1H-benzimidazol-5-yl)-1H-benzo[de]isoquinoline-1,3(2H)-dione], in [7], the “no activity up to, panel of 22 kinases” value is greater than 10 µM. For the same compound, the “activity for BRPF3” value in [8] (AlphaScreen) is “no activity”. In addition, the “activity for BRD4 BDs” value in [9] is “no activity”.

For the compound `Cc1cc2c(cc1N1C(=O)c3cccc4c(CCCO)ccc(c34)C1=O)n(C)c(=O)n2C` (single isomer, unassigned) [atropisomer 2, (+)-6-(3-Hydroxypropyl)-2-(1,3,6-trimethyl-2-oxo-2,3-dihydro-1H-benzimidazol-5-yl)-1H-benzo[de]isoquinoline-1,3(2H)-dione], in data set [5] (BRPF1 IC50, TR-FRET), the IC50 amounted to 5.49 µM.

As usually defined, the Kd is the constant that tells how readily two partners part at equilibrium. High values mean lower affinity, low ones higher affinity. The Papp B→A is how fast a substance crosses the layer from the basolateral side. For the compound `Cc1cc2c(cc1N1C(=O)c3cccc4c(CCCO)ccc(c34)C1=O)n(C)c(=O)n2C` (racemic) [Compound 5, 6-(3-Hydroxypropyl)-2-(1,3,6-trimethyl-2-oxo-2,3-dihydro-1H-benzimidazol-5-yl)-1H-benzo[de]isoquinoline-1,3(2H)-dione], the CLblood in data set [10] was less than 0.017 mL/min/kg; in data set [12] (in vivo), 12.2 mL/min/kg; in data set [14], 2.5 mL/min/kg; in data set [15] it was 63.3 mL/min/kg; in data set [17], 3.17 mL/min/kg; in [20] it was less than 0.017 mL/min/kg. The Fmax in data set [10] and in [20] was 100% throughout. In data set [11], this compound registered a Kd of 1.39 µM. In data set [12], the “blood clearance as share of hepatic blood flow” value is “ca. 17%”. For the same compound, the IC50 in [13] is 2.28 µM; in data set [19] it was greater than 10 µM; in data set [8], 2.45 µM; in data set [5] (BRPF1 IC50, TR-FRET), 3.15 µM; in [6], 5.55 µM; in data set [21], 1.71 µM. For the same compound, the midpoint of inhibition in data set [22], the IC50, lay at 0.106 µM. The same compound returned a Papp B→A at 2 h, 2 μM in [16] of 19.1 ×10⁻⁶ cm/s. In addition, the “inhibition in kinase panel” value in data set [18] is “less than 50%”. Moreover, the “inhibition or stimulation in LeadProfilingScreen” value in data set [23] is no more than 25%.

In the case of `Cc1cc2c(cc1N1C(=O)c3cccc4c(Cl)ccc(c34)C1=O)n(C)c(=O)n2C` [Compound 13, 6-Chloro-2-(1,3,6-trimethyl-2-oxo-2,3-dihydro-1H-benzimidazol-5-yl)-1H-benzo[de]isoquinoline-1,3(2H)-dione], the “cellular activity for BRPF1” value in data set [19] (NanoBRET) is recorded as “no activity”.

In data set [5] (BRPF1 IC50, TR-FRET), `Cc1cc2c(cc1N1C(=O)c3cccc4c(CCCO)ccc(c34)C1=O)n(C)c(=O)n2C` (single isomer, unassigned) [atropisomer 1, (−)-6-(3-Hydroxypropyl)-2-(1,3,6-trimethyl-2-oxo-2,3-dihydro-1H-benzimidazol-5-yl)-1H-benzo[de]isoquinoline-1,3(2H)-dione] returned an IC50 of 5.86 µM.

The values above are taken from article PMC5443610 (Journal of Medicinal Chemistry, 2017).
